The source made the active and inactive calls. The rule behind the calls is not given here.
Molecular target: Mitogen-activated protein kinase kinase kinase 2 (Homo sapiens) + Dual specificity mitogen-activated protein kinase kinase 5 (Homo sapiens) (UniProt Q9Y2U5+Q13163)
Test: MEKK2 PB1-MEK5 interaction blockers – biochemical, bead multiplex flow cytometry, wildtype, dose response (AID 1897)
Conditions: MEK5-MEKK2 PB1 binding; for Ki: measured here: Ki from binding competition

Mitogen-activated protein kinase kinase kinase 2 (Homo sapiens) + Dual specificity mitogen-activated protein kinase kinase 5 (Homo sapiens), sequence (Q13163 whole entry, looked up): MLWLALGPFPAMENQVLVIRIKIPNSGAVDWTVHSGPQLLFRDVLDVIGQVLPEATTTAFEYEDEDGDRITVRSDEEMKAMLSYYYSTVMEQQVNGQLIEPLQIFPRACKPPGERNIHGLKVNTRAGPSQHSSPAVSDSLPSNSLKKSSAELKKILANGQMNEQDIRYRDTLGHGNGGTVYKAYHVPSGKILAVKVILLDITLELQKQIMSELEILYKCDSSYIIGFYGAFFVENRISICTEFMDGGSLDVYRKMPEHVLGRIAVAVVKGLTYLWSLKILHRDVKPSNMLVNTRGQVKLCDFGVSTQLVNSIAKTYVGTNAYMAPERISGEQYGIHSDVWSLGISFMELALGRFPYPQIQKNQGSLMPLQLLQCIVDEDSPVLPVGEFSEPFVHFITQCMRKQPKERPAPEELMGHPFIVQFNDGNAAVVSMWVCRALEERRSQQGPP
Mitogen-activated protein kinase kinase kinase 2 (Homo sapiens) + Dual specificity mitogen-activated protein kinase kinase 5 (Homo sapiens), sequence (Q9Y2U5 whole entry, looked up): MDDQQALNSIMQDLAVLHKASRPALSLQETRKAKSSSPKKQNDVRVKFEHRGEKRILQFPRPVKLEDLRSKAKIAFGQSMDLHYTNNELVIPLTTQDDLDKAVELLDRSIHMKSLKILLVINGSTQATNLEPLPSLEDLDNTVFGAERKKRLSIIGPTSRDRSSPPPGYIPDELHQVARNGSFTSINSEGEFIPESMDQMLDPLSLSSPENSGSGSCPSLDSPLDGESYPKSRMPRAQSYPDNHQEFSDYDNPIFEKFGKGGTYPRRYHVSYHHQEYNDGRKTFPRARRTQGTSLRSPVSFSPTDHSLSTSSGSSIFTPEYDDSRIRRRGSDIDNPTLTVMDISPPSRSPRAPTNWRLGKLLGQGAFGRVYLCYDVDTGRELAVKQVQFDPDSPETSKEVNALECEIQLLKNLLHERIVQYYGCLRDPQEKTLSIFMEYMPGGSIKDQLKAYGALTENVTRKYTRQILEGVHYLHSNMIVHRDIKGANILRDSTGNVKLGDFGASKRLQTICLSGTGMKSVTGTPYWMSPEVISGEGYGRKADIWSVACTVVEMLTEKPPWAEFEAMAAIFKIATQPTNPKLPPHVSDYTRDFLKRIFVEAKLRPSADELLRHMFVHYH

Compound | EC50 | Ki
C=CCN1C(=O)/C(=C/c2ccc(-c3ccc(F)cc3)o2)SC1=S | 2.06 µM | 1.84 µM
C#CCOCCOCCOCCNc1nc(N2CCN(C(=O)C(Cc3cc4ccccc4[nH]3)n3cc(C(N)C(C)CC)nn3)CC2)nc(N2CCN(C(=O)C(Cc3cc4ccccc4[nH]3)n3cc(C(N)C(C)CC)nn3)CC2)n1 (stereo unspecified) | 1.75 µM | 
CCCCCCCCCCOC(=O)Cn1c(COc2cccc(C)c2)[n+](C)c2ccccc21 | > 30 µM (inactive) | 
COCCNC(=O)CN(c1cc(Cl)ccc1OC)S(=O)(=O)c1ccc(C)c([N+](=O)[O-])c1 | > 30 µM (inactive) | 
CCCCCCCCCCOC(=O)Cn1c(COc2ccccc2C)[n+](C)c2ccccc21 | > 30 µM (inactive) | 
CCCCCc1cc(=O)oc2c(C(CCN3CCCC(C)C3)c3ccc4c(c3)OCO4)c(OC)cc(OC)c12 (stereo unspecified) | > 30 µM (inactive) | 
CCc1ccc(Nc2n[n+](-c3ccccc3)c(-c3cc(OC)c(OC)cc3Br)s2)cc1 | 5.06 µM | 
CCN(CC)CCOc1ccc2c(c1)C(=NNC(=O)c1ccccn1)c1cc(OCCN(CC)CC)ccc1-2 | 5.71 µM | 
C#CCOCCOCCOCCNc1nc(N2CCN(C(=O)[C@H](Cc3cc4ccccc4[nH]3)n3cc([C@@H](N)C(C)CC)nn3)CC2)nc(N2CCN(C(=O)[C@H](CCCCN)n3cc([C@@H](N)CC(C)C)nn3)CC2)n1 (stereo partly specified) | 6.9 µM | 
COc1ccc(NC(=O)N(Cc2cc3cc(C)ccc3[nH]c2=O)CC2CCCO2)cc1 (stereo unspecified) | > 30 µM (inactive) | 
COc1ccc(CNC[C@@H](CCCCN(C)Cc2ccc(OC)cc2)N2C[C@H](c3ccccc3)N(CCc3ccc(Cl)c(Cl)c3)C(=O)C2=O)cc1 | 1.48 µM | 
CCCCCCOc1ccc(/C(C)=N/NC2=NCCN2)cc1[N+](=O)[O-] | 9.29 µM | 
Cc1ccccc1OCC(O)CNC1CCC(NCC(O)COc2ccccc2C)CC1 (stereo unspecified) | > 30 µM (inactive) | 
COC(=O)C1=C(C)N(Cc2ccccc2)C(=NCc2cccc(C(F)(F)F)c2)N[C@H]1c1cccc(F)c1 | 7.03 µM | 
CCOC(=O)c1c(C)n(-c2ccc(C)cc2)c2ccc(OCC(O)CN3CCN(C)CC3)cc12 (stereo unspecified) | > 30 µM (inactive) | 
CN(C)c1ccc(/C=C/C=C2/SC(=S)N(c3ccccc3)C2=O)cc1 | 0.95 µM | 0.85 µM
CCN1/C(=C/c2ccc3cc(C)ccc3[n+]2CC)Sc2cc(C)c(C)cc21 | 2.63 µM | 2.35 µM
O=C(NNc1c2ccccc2nc2ccccc12)c1cc2ccccc2cc1O | > 30 µM (inactive) | 
C#CCOCCOCCOCCNc1nc(N2CCN(C(=O)[C@H](Cc3cc4ccccc4[nH]3)n3cc([C@@H](N)CC(C)C)nn3)CC2)nc(N2CCN(C(=O)[C@H](Cc3cc4ccccc4[nH]3)n3cc([C@@H](N)CC(C)C)nn3)CC2)n1 | > 30 µM (inactive) | 
CCCCCCCCCCCCCCCC[n+]1cccc2ccccc21 | > 30 µM (inactive) | 
CCCN1C(=O)/C(=C\C=C2/Sc3ccccc3N2CC)SC1=S | 3.03 µM | 2.71 µM

Compound | EC50 | Ki
CCCCCc1cc(=O)oc2c(C(CCN3CCCCC3)c3ccc4c(c3)OCO4)c(OC)cc(OC)c12 (stereo unspecified) | > 30 µM (inactive) | 
CCN(CC)CCNC(=O)c1ccc(NC(=O)c2cn(-c3ccccc3)nc2-c2cccs2)cc1 | 5.94 µM | 
C#CCOCCOCCOCCNc1nc(N2CCN(C(=O)[C@H](Cc3ccc(O)cc3)n3cc([C@@H](N)CC(C)C)nn3)CC2)nc(N2CCN(C(=O)[C@H](Cc3cc4ccccc4[nH]3)n3cc([C@@H](N)CC(C)C)nn3)CC2)n1 | 5.14 µM | 
CCN(CC)CCOC(=O)c1ccc(N/C=C(/C#N)c2nc(-c3ccc(OC)cc3)cs2)cc1 | > 30 µM (inactive) | 
CN1C(=O)/C(=C\c2ccc(-c3ccccc3)o2)SC1=S | 3.51 µM | 3.14 µM
CCCCCc1cc(=O)oc2c(C(CCN3CCCCC3)c3ccc(OC)cc3)c(OC)cc(OC)c12 (stereo unspecified) | > 30 µM (inactive) | 
Nc1ccc(N)c(C(=O)O)c1 | 3.78 µM | 3.39 µM
CCN1CCN(CCNC(=O)c2ccc(/C=C3/Sc4ccccc4N(Cc4cccc(C)c4)C3=O)cc2)CC1 | 6.61 µM | 
CCOC(=O)C1=C(c2ccccc2)NC(N)=NC1c1ccc(OCc2ccc(Cl)cc2)c(OC)c1 (stereo unspecified) | 0.58 µM | 
CCN(CC)CCOC(=O)c1ccc(N/C=C(/C#N)c2nc(-c3ccc(OC)c(OC)c3)cs2)cc1 | > 30 µM (inactive) | 
CN(C)CCNc1ncnc2c1sc1nc(-c3ccccc3)c3c(c12)CCCC3 | 3.37 µM | 
CCCCCCCCCCOC(=O)Cn1c(COc2cccc(OC)c2)[n+](C)c2ccccc21 | 4.33 µM | 
C#CCOCCOCCOCCNc1nc(N2CCN(C(=O)[C@H](CCCCN)n3cc([C@@H](N)CC(C)C)nn3)CC2)nc(N2CCN(C(=O)[C@H](Cc3cc4ccccc4[nH]3)n3cc([C@@H](N)Cc4ccc(O)cc4)nn3)CC2)n1 | > 30 µM (inactive) | 
CCC(/C=C1\Sc2ccc(OC)cc2N1CCO)=C\c1sc2ccc(OC)cc2[n+]1CCO | 0.87 µM | 0.78 µM
CCN1C(c2ccccc2)=C(c2ccccc2)S/C1=C/C=C1\SC(=S)N(C)C1=O | 2.73 µM | 2.44 µM
COc1ccc(Cn2cc3c(-c4ccc(F)cc4)nnc-3c3cc(OC)c(OC)cc32)cc1 | 1.15 µM | 
CCN1C(c2ccccc2)=C(c2ccccc2)S/C1=C\C=C1/SC(=S)N(C)C1=O | 3.38 µM | 3.02 µM
CS(=O)(=O)N1N=C(c2ccccc2)CC1c1ccc2c(c1)OCO2 (stereo unspecified) | > 30 µM (inactive) | 
C#CCOCCOCCOCCNc1nc(N2CCN(C(=O)C(Cc3ccc(O)cc3)n3cc(C(N)CC(C)C)nn3)CC2)nc(N2CCN(C(=O)C(Cc3cc4ccccc4[nH]3)n3cc(C(N)Cc4ccc(O)cc4)nn3)CC2)n1 (stereo unspecified) | 6.12 µM | 
CCCCCCCCCCOC(=O)Cn1c(COc2ccc(OC)cc2)[n+](C)c2ccccc21 | > 30 µM (inactive) | 
Cc1sc(NC(=O)c2ccccc2)c(C(c2ccccn2)N2CCN(CCO)CC2)c1C (stereo unspecified) | > 30 µM (inactive) | 

Compound | EC50 | Ki
Cc1ccc(-c2c[n+](CC(=O)Nc3nc(-c4ccc(F)cc4)cs3)c3n2CCC3)cc1 | 9.91 µM | 
CCCCCCCCCC[N+](C)(C)CC/C=C1/c2ccccc2Sc2ccc(Cl)cc21 | 2.24 µM | 
C#CCOCCOCCOCCNc1nc(N2CCN(C(=O)[C@H](Cc3cc4ccccc4[nH]3)n3cc([C@@H](N)C(C)CC)nn3)CC2)nc(N2CCN(C(=O)[C@H](Cc3cc4ccccc4[nH]3)n3cc([C@@H](N)Cc4ccc(O)cc4)nn3)CC2)n1 (stereo partly specified) | 1.01 µM | 
COCc1c(C#N)c(NCCc2ccccc2)nc(C)c1[N+](=O)[O-] | > 30 µM (inactive) | 
C#CCOCCOCCOCCNc1nc(N2CCN(C(=O)[C@H]([C@@H](C)CC)n3cc([C@@H](N)Cc4ccc(O)cc4)nn3)CC2)nc(N2CCN(C(=O)[C@H](Cc3cc4ccccc4[nH]3)n3cc([C@@H](N)C(C)CC)nn3)CC2)n1 (stereo partly specified) | 3.73 µM | 
O=C(Nc1ccc(Cl)cn1)c1ccc2c(Cl)c3c(nc2c1)CCC3 | > 30 µM (inactive) | 
S=C(Nc1cccc(Cl)c1)N(CCCN1CCCC1)Cc1cccn1Cc1ccc(Cl)cc1 | 5.75 µM | 
CCCCCCCCCCCCCCCC[n+]1ccc(/C=N/O)cc1 | 2.94 µM | 
CC[C@@H](C)[C@H](CNC)NC[C@@H](Cc1cccc2ccccc12)NCCc1cccc(C(F)(F)F)c1 | 2.03 µM | 
Cc1nn2c(N)csc2nc1=O | 4.09 µM | 3.66 µM
Cc1nc(Nc2cnc(/C=C/c3cc(C(=O)Nc4cccc(C(F)(F)F)c4)ccc3C)cn2)cc(N2CCNCC2)n1 | > 30 µM (inactive) | 
CCn1cc(C(=O)O)c(=O)c2cc(F)c(N3CCN(C(=S)NC(=O)c4ccc(Br)cc4)CC3)cc21 | > 30 µM (inactive) | 
CN(C)c1ccc(NC(=O)CN2CCC(O)(c3ccccc3)CC2)cc1 | > 30 µM (inactive) | 
CNc1nc(-c2c[nH]c3ccccc23)cs1 | > 30 µM (inactive) | 
Brc1ccc(N=C/C=C/C=C/Nc2ccc(Br)cc2)cc1 | > 30 µM (inactive) | 
CCN(Cc1ccccc1)S(=O)(=O)c1ccc(C(=O)N(CCCN(C)C)c2nc3ccc(F)cc3s2)cc1 | 5.81 µM | 
O=C(c1cc(COc2c(F)cccc2F)on1)N1C[C@H]2CC[C@H]1C2 | > 30 µM (inactive) | 
NC(N)=N/N=C/c1ccc(OCc2ccccc2Cl)cc1 | 19.2 µM | 
CCN1/C(=C/c2ccc3cc(C)ccc3[n+]2C)Sc2ccc3sccc3c21 | > 30 µM (inactive) | 

From PubChem BioAssay AID1897 (NMMLSC, 2009)
